Data published in patent publication US8710065B2, “Tricyclic inhibitors of kinases” (AbbVie Inc., priority 2011, dated 2014).

Each compound was assayed against T1, GST-tagged-Wee1 kinase (Homo sapiens, UniProt P30291) (assay: Wee1 time-resolved fluorescence equilibrium binding assay (displacement of Oregon Green-labeled ATP-competitive kinase probe)). Conditions: read-out: Wee-1 inhibition (Ki).
T1 construct: purchased Carnabio (Carna Biosciences) 05-177
Procedure, shortened: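 Ki values derive from competitive displacement, under equilibrium, of a fast-reversible ATP-site Oregon Green kinase probe from GST-tagged Wee1, detected by time-resolved fluorescence.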

T1 sequence (P30291 whole entry): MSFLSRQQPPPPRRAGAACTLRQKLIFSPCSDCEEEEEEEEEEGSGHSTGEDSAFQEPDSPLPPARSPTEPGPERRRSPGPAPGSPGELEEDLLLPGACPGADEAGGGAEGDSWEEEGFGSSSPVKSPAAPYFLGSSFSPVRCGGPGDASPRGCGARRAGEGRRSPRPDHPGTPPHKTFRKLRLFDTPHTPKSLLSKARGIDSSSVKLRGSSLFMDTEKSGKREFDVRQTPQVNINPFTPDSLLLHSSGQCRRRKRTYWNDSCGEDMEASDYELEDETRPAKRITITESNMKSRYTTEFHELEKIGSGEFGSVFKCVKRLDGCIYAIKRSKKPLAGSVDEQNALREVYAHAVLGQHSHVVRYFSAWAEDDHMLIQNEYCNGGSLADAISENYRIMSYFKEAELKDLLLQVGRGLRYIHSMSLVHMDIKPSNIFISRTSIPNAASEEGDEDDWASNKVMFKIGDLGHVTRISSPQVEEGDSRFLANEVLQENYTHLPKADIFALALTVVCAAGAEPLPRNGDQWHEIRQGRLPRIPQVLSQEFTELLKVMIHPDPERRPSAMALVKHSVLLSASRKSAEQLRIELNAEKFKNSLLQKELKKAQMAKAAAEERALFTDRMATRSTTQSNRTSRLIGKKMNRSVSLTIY

**Q.** For `CS(=O)(=O)N1CCC2(CN(c3ccc(Nc4ncc5c(=O)n(-c6c(Cl)cccc6Cl)c6nccn6c5n4)cc3)C2)C1` [Example 324, 6-(2,6-dichlorophenyl)-2-({4-[6-(methylsulfonyl)-2,6-diazaspiro[3.4]oct-2-yl]phenyl}amino)imidazo[1,2-a]pyrimido[5,4-e]pyrimidin-5(6H)-one], which Ki is on record?
**A.** < 0.01 µM

**Q.** With `O=c1c2cnc(Nc3ccc(N4CCN5CCC[C@H]5C4)cc3)nc2n2ccnc2n1-c1ccccc1Cl` [Example 325, 6-(2-chlorophenyl)-2-({4-[(8aS)-hexahydropyrrolo[1,2-a]pyrazin-2(1H)-yl]phenyl}amino)imidazo[1,2-a]pyrimido[5,4-e]pyrimidin-5(6H)-one] as the compound, how does the Ki read?
**A.** < 0.01 µM

**Q.** Which Ki does the source give for `CN1C[C@H]2CCN(c3ccc(Nc4ncc5c(=O)n(-c6c(Cl)cccc6Cl)c6nccn6c5n4)cc3)[C@H]2C1` [Example 326, 6-(2,6-dichlorophenyl)-2-({4-[(3aR,6aR)-5-methylhexahydropyrrolo[3,4-b]pyrrol-1(2H)-yl]phenyl}amino)imidazo[1,2-a]pyrimido[5,4-e]pyrimidin-5(6H)-one] here?
**A.** < 0.01 µM

**Q.** `CCN(CCN(C)C)c1ccc(Nc2ncc3c(=O)n(-c4c(Cl)cccc4Cl)c4nccn4c3n2)cc1` [Example 327, 6-(2,6-dichlorophenyl)-2-[(4-{[2-(dimethylamino)ethyl](ethyl)amino}phenyl)amino]imidazo[1,2-a]pyrimido[5,4-e]pyrimidin-5(6H)-one] was tested. Which Ki did it give?
**A.** < 0.01 µM

**Q.** Which Ki does the source give for `CC(C)NCCN(c1ccc(Nc2ncc3c(=O)n(-c4c(Cl)cccc4Cl)c4nccn4c3n2)cc1)C(C)C` [Example 328, 6-(2,6-dichlorophenyl)-2-[(4-{propan-2-yl[2-(propan-2-ylamino)ethyl]amino}phenyl)amino]imidazo[1,2-a]pyrimido[5,4-e]pyrimidin-5(6H)-one] here?
**A.** < 0.01 µM

**Q.** `CC(=O)N1CCc2ccc(Nc3ncc4c(=O)n(-c5c(Cl)cccc5Cl)c5nccn5c4n3)cc2C1` [Example 329, 2-[(2-acetyl-1,2,3,4-tetrahydroisoquinolin-7-yl)amino]-6-(2,6-dichlorophenyl)imidazo[1,2-a]pyrimido[5,4-e]pyrimidin-5(6H)-one] was tested. Which Ki did it give?
**A.** < 0.01 µM

**Q.** `CS(=O)(=O)N1CCc2cc(Nc3ncc4c(=O)n(-c5c(Cl)cccc5Cl)c5nccn5c4n3)ccc2C1` [Example 330, 6-(2,6-dichlorophenyl)-2-{[2-(methylsulfonyl)-1,2,3,4-tetrahydroisoquinolin-6-yl]amino}imidazo[1,2-a]pyrimido[5,4-e]pyrimidin-5(6H)-one] was tested. Which Ki did it give?
**A.** < 0.01 µM

**Q.** `CC(=O)N1CCc2cc(Nc3ncc4c(=O)n(-c5c(Cl)cccc5Cl)c5nccn5c4n3)ccc2C1` [Example 331, 2-[(2-acetyl-1,2,3,4-tetrahydroisoquinolin-6-yl)amino]-6-(2,6-dichlorophenyl)imidazo[1,2-a]pyrimido[5,4-e]pyrimidin-5(6H)-one] was tested. Which Ki did it give?
**A.** < 0.01 µM

**Q.** How did the Ki turn out when `CN1CCN(c2ccc(Nc3ncc4c(=S)n(-c5ccccc5Cl)c5nccn5c4n3)cc2)CC1` [Example 332, 6-(2-chlorophenyl)-2-{[4-(4-methylpiperazin-1-yl)phenyl]amino}imidazo[1,2-a]pyrimido[5,4-e]pyrimidine-5(6H)-thione] was run?
**A.** < 0.01 µM

**Q.** With `CN1CCN(c2ccc(Nc3ncc4c(=N)n(-c5ccccc5Cl)c5nccn5c4n3)cc2)CC1` [Example 333, 6-(2-chlorophenyl)-5-imino-N-[4-(4-methylpiperazin-1-yl)phenyl]-5,6-dihydroimidazo[1,2-a]pyrimido[5,4-e]pyrimidin-2-amine] as the compound, how does the Ki read?
**A.** < 0.01 µM

**Q.** For `CN1Cc2cc(Nc3ncc4c(=S)n(-c5ccccc5Cl)c5nccn5c4n3)ccc2C(C)(C)C1` [Example 334, 6-(2-chlorophenyl)-2-[(2,4,4-trimethyl-1,2,3,4-tetrahydroisoquinolin-7-yl)amino]imidazo[1,2-a]pyrimido[5,4-e]pyrimidine-5(6H)-thione], which Ki is on record?
**A.** < 0.01 µM

**Q.** With `CN1Cc2cc(Nc3ncc4c(=N)n(-c5ccccc5Cl)c5nccn5c4n3)ccc2C(C)(C)C1` [Example 335, 6-(2-chlorophenyl)-5-imino-N-(2,4,4-trimethyl-1,2,3,4-tetrahydroisoquinolin-7-yl)-5,6-dihydroimidazo[1,2-a]pyrimido[5,4-e]pyrimidin-2-amine] as the compound, how does the Ki read?
**A.** < 0.01 µM

**Q.** How did the Ki turn out when `CN1CCN(c2ccc(Nc3ncc4c(=O)n(-c5cccc(F)c5)c5nccn5c4n3)cc2)CC1` [Example 336, 6-(3-fluorophenyl)-2-{[4-(4-methylpiperazin-1-yl)phenyl]amino}imidazo[1,2-a]pyrimido[5,4-e]pyrimidin-5(6H)-one] was run?
**A.** 0.01 to 0.1 µM

**Q.** How did the Ki turn out when `CN1CCN(c2ccc(Nc3ncc4c(=O)n(-c5cccc(Cl)c5)c5nccn5c4n3)cc2)CC1` [Example 337, 6-(3-chlorophenyl)-2-{[4-(4-methylpiperazin-1-yl)phenyl]amino}imidazo[1,2-a]pyrimido[5,4-e]pyrimidin-5(6H)-one] was run?
**A.** > 0.1 µM

**Q.** How did the Ki turn out when `COc1ccc(-n2c(=O)c3cnc(Nc4ccc(N5CCN(C)CC5)cc4)nc3n3ccnc23)c(OC)c1` [Example 338, 6-(2,4-dimethoxyphenyl)-2-{[4-(4-methylpiperazin-1-yl)phenyl]amino}imidazo[1,2-a]pyrimido[5,4-e]pyrimidin-5(6H)-one] was run?
**A.** > 0.1 µM

**Q.** For `CCN1CCN(c2ccc(Nc3ncc4c(=O)n(-c5ccccc5Cl)c5nccn5c4n3)nc2)CC1` [Example 339, 6-(2-chlorophenyl)-2-{[5-(4-ethylpiperazin-1-yl)pyridin-2-yl]amino}imidazo[1,2-a]pyrimido[5,4-e]pyrimidin-5(6H)-one], which Ki is on record?
**A.** > 0.1 µM

**Q.** Which Ki does the source give for `CN1CCN(c2ccc(Nc3ncc4c(=O)n(-c5ccc(C(F)(F)F)cc5Cl)c5nccn5c4n3)cc2)CC1` [Example 340, 6-[2-chloro-4-(trifluoromethyl)phenyl]-2-{[4-(4-methylpiperazin-1-yl)phenyl]amino}imidazo[1,2-a]pyrimido[5,4-e]pyrimidin-5(6H)-one] here?
**A.** > 0.1 µM

**Q.** Which Ki does the source give for `CN1CCN(c2ccc(Nc3ncc4c(=O)n(-c5ccccc5OC(F)(F)F)c5nccn5c4n3)cc2)CC1` [Example 341, 2-{[4-(4-methylpiperazin-1-yl)phenyl]amino}-6-[2-(trifluoromethoxy)phenyl]imidazo[1,2-a]pyrimido[5,4-e]pyrimidin-5(6H)-one] here?
**A.** > 0.1 µM

**Q.** With `O=C(O)c1ccc(Nc2ncc3c(=O)n(-c4ccccc4Cl)c4nccn4c3n2)cc1` [Example 342, 4-{[6-(2-chlorophenyl)-5-oxo-5,6-dihydroimidazo[1,2-a]pyrimido[5,4-e]pyrimidin-2-yl]amino}benzoic acid] as the compound, how does the Ki read?
**A.** > 0.1 µM

**Q.** How did the Ki turn out when `O=c1c2cnc(Nc3ccc(Br)cc3)nc2n2ccnc2n1-c1ccccc1Cl` [Example 343, 2-[(4-bromophenyl)amino]-6-(2-chlorophenyl)imidazo[1,2-a]pyrimido[5,4-e]pyrimidin-5(6H)-one] was run?
**A.** 0.01 to 0.1 µM

**Q.** `COc1cccc(-n2c(=O)c3cnc(Nc4ccccc4)nc3n3ccnc23)c1C` [Example 344, 6-(3-methoxy-2-methylphenyl)-2-(phenylamino)imidazo[1,2-a]pyrimido[5,4-e]pyrimidin-5(6H)-one] was tested. Which Ki did it give?
**A.** > 0.1 µM

**Q.** For `Cc1cc(Nc2ncc3c(=O)n(-c4c(Cl)cccc4Cl)c4nccn4c3n2)ccc1N1CCCNCC1` [Example 345, 2-{[4-(1,4-diazepan-1-yl)-3-methylphenyl]amino}-6-(2,6-dichlorophenyl)imidazo[1,2-a]pyrimido[5,4-e]pyrimidin-5(6H)-one], which Ki is on record?
**A.** 0.01 to 0.1 µM

**Q.** Which Ki does the source give for `CC(C)n1c(=O)c2cnc(Nc3ccc(N4CCN(C)CC4)cc3)nc2n2ccnc12` [Example 346, 2-{[4-(4-methylpiperazin-1-yl)phenyl]amino}-6-(propan-2-yl)imidazo[1,2-a]pyrimido[5,4-e]pyrimidin-5(6H)-one] here?
**A.** 0.01 to 0.1 µM

**Q.** Which Ki does the source give for `CN1CCN(c2c(F)cc(Nc3ncc4c(=O)n(-c5ccccc5Cl)c5nccn5c4n3)cc2F)CC1` [Example 347, 6-(2-chlorophenyl)-2-{[3,5-difluoro-4-(4-methylpiperazin-1-yl)phenyl]amino}imidazo[1,2-a]pyrimido[5,4-e]pyrimidin-5(6H)-one] here?
**A.** > 0.1 µM

**Q.** With `O=c1c2cnc(Nc3ccc(C(F)(F)F)cc3)nc2n2ccnc2n1-c1ccccc1Cl` [Example 348, 6-(2-chlorophenyl)-2-{[4-(trifluoromethyl)phenyl]amino}imidazo[1,2-a]pyrimido[5,4-e]pyrimidin-5(6H)-one] as the compound, how does the Ki read?
**A.** > 0.1 µM

**Q.** For `O=c1c2cnc(Nc3ccc(-c4cscn4)cc3)nc2n2ccnc2n1-c1ccccc1Cl` [Example 349, 6-(2-chlorophenyl)-2-{[4-(1,3-thiazol-4-yl)phenyl]amino}imidazo[1,2-a]pyrimido[5,4-e]pyrimidin-5(6H)-one], which Ki is on record?
**A.** 0.01 to 0.1 µM

**Q.** How did the Ki turn out when `O=c1c2cnc(Nc3ccc(-c4nccs4)cc3)nc2n2ccnc2n1-c1ccccc1Cl` [Example 350, 6-(2-chlorophenyl)-2-{[4-(1,3-thiazol-2-yl)phenyl]amino}imidazo[1,2-a]pyrimido[5,4-e]pyrimidin-5(6H)-one] was run?
**A.** 0.01 to 0.1 µM

**Q.** For `O=c1c2cnc(Nc3ccc(-c4ccc5cccnc5n4)cc3)nc2n2ccnc2n1-c1ccccc1Cl` [Example 351, 6-(2-chlorophenyl)-2-{[4-(1,8-naphthyridin-2-yl)phenyl]amino}imidazo[1,2-a]pyrimido[5,4-e]pyrimidin-5(6H)-one], which Ki is on record?
**A.** 0.01 to 0.1 µM

**Q.** Which Ki does the source give for `O=c1c2cnc(Nc3ccc(N4CCC[C@H]4C(F)(F)F)cc3)nc2n2ccnc2n1-c1ccccc1Cl` [Example 352, 6-(2-chlorophenyl)-2-({4-[(2S)-2-(trifluoromethyl)pyrrolidin-1-yl]phenyl}amino)imidazo[1,2-a]pyrimido[5,4-e]pyrimidin-5(6H)-one] here?
**A.** 0.01 to 0.1 µM

**Q.** Which Ki does the source give for `CN1CCN(c2c(Cl)cc(Nc3ncc4c(=O)n(-c5ccccc5Cl)c5nccn5c4n3)cc2C(F)(F)F)CC1` [Example 353, 2-{[3-chloro-4-(4-methylpiperazin-1-yl)-5-(trifluoromethyl)phenyl]amino}-6-(2-chlorophenyl)imidazo[1,2-a]pyrimido[5,4-e]pyrimidin-5(6H)-one] here?
**A.** > 0.1 µM

**Q.** With `O=c1c2cnc(Nc3cc(Cl)c(N4CCNCC4)c(C(F)(F)F)c3)nc2n2ccnc2n1-c1ccccc1Cl` [Example 354, 6-(2-chlorophenyl)-2-{[3-chloro-4-(piperazin-1-yl)-5-(trifluoromethyl)phenyl]amino}imidazo[1,2-a]pyrimido[5,4-e]pyrimidin-5(6H)-one] as the compound, how does the Ki read?
**A.** > 0.1 µM
